# Assay results: patent US5260050A, “Methods and compositions for magnetic resonance imaging comprising superparamagnetic ferromagnetically coupled chromium complexes” (priority 1990, dated 1993)
# Experiments:
# [1] = typically 15 MHz; cited from earlier work
# [2] = test system: BRO-strain human malignant melanomas; assay: MR imaging of human melanoma xenografts in nude mice; assay type: in vivo, human; Swiss nude mice; conditions: i.v.
# Protocol: The strong paramagnetic metal ion, gadolinium (Gd^+3), was chelated stoichiometrically to DTPA-Dextran 70 polymer, whose preparation is described in Example 1, paragraph 2 (improved formulation). Swiss nude mice were inoculated with BRO-strain human malignant melanomas, and these were allowed to grow to a 1-1.5 cm diameter. Moderately T1-weighted MR imaging (TR=500 msec, TE=40 msec) was performed in a standard Diasonics™ medical imager and a 30-cm RF head coil, before and after intravenous injection of equivalent doses of Gd-DTPA-Dextran-70 (0.03 mmol Gd/kg) or Gd-DTPA (0.1 mmol/kg) contrast agent. […] It will also be recognized that much lower doses of the stronger superparamagnetics (including doses below about 0.01 mmol/kg, versus 0.1 mmol/kg for Gd-DTPA) can be used to obtain effective MRI contrast enhancement; and that much faster, more heavily T1-weighted pulse sequences can be implemented in the presence of superparamagnetic-polymer conjugates or paired-ion complexes.
# tumor = conditions: in vivo; cited from earlier work
# [3] = in vivo; cited from earlier work
# [4] = cited from earlier work
# VX2 carcinoma cells = assay: Histochemical platinum staining of perfused VX2 tumors; assay type: in vivo, rabbit; conditions: intraarterial perfusion
# Protocol: At 5 to 15 minutes postinjection, the animals were sacrificed, their lungs removed and fixed with intratracheal buffered formalin, tissue sections cut at 8 microns thickness, and the sections stained using a newly devised method for platinum which comprises a microwave-augmented iron-type stain (60° C.×2 minute×3 cycles) using a 1:1 mixture of 2% ferriferocyanide reagent and 4% HCl. […] To those skilled in the art, additional evidence for selective lung localization, was obtained by injecting intravenously, analogous (subembolizing) heparin-coated nanoparticles containing encapsulated amphotericin B, into identical mice, homogenizing the lungs, and documenting an 8-fold increment in drug levels over native amphotericin B (deoxycholate formulation, Fungizone; Squibb) recovered at 1 to 3 hours postinjection.
# Additional documentation for maintenance of the cisplatin-carrier paired-ion complex in vivo was obtained as follows. […] Animals were sacrificed at 15 minutes, and the tumors and organs were homogenized extracted and analyzed by atomic absorption for tissue platinum concentrations, as shown in Table 1.
# Additionally, histochemical platinum stains were performed on the tumor tissues, as described in Example 7.
# Microinhomogeneities of tissue heating represent a major problem in hyperthermia treatment of tumors. […]
# [5] = Permeability of tumor vascular walls; conditions: transport by a polymeric carrier
# tumor cells = assay: Histology of heparin carrier transport into tumor cells; conditions: histologically (not shown)
molecule,measurement,setting,value
"CNC[C@H](O)[C@@H](O)[C@H](O)[C@H](O)CO.CNC[C@H](O)[C@@H](O)[C@H](O)[C@H](O)CO.O=C([O-])CN(CCN(CC(=O)[O-])CC(=O)O)CCN(CC(=O)[O-])CC(=O)O.[Gd+3] [Gd-DTPA, gadolinium-diethylenetriaminepentaacetate (Gd-DTPA) dimeglumine]",Relaxivity at higher clinical radio frequencies,[1],moderate decrease in relaxivity
same,Fading of tumor enhancement,"[2]; 0.1 mmol/kg, by one hour",completely faded
same,Postcontrast interval at which optimal tumor enhancement began,"[2]; 0.03 mmol Gd/kg (Gd-DTPA-dextran) or 0.1 mmol/kg (Gd-DTPA), TR=500, TE=40 msec",10 min
same,Retention in tumor interstitium / tumor enhancement of comparator,tumor,10 to 45 min
same,"Biodistribution, share of total body water",[3],ca. 35 % of total body water
same,Blood clearance half-time,[4]; bloodstream,20 min
same,Fading of tumor contrast enhancement,[4]; by 30 minutes postcontrast,almost complete fading (tumor clearance)
same,Acute hepatic uptake interval,[4]; in vivo,5 to 45 min
same,Postinjection contrast interval / imaging window,[4]; in vivo,10 to 45 min
same,Retained fraction,[4]; in vivo,less than 0.5%
same,Fraction sequestered in the kidneys,[4]; intravenous,> 90%
"N.N.[Cl][Pt][Cl] [cisplatin, cis-dichlorodiamine platinum]",Aggregated staining,VX2 carcinoma cells,absent
OCC(O)CO [glycerol],Permeability of tumor vascular walls,[5],increases the permeability of the vascular walls in the tumorous region
heparin,Intracellular transport in tumor cells,tumor cells,transported inside tumor cells
